Earlier results, collected in patent publication US20080268488A1, “Screening Method for Dnak Inhibitors” (priority 2005, published 2008).
No end group written: not given here.

Conditions: aminopeptidase and carboxypeptidase cleavage products observed

Sequence	susceptibility to proteolytic degradation in the presence of mammalian serum
GKPRPYSPRPTSHPRPIRV [drosocin, Gly-Lys-Pro-Arg-Pro-Tyr-Ser-Pro-Arg-Pro-Thr-Ser-His-Pro-Arg-Pro-Ile-Arg-Val]	highly susceptible to proteolytic degradation
VDKGSYLPRPTPPRPIYNRN [pyrrhocoricin]	highly susceptible to proteolytic degradation
